# Measurements from US6967102B1, “Nitric oxide manipulation of muscle satellite cell activation” (University of Manitoba, priority 1999, dated 2005).
# “Also recorded” adds a separate entry of the source.
# What was measured:
# regenerating muscle = experiment: Muscle regeneration 6 days after crush injury, normal mice; assay type: in vivo
# Protocol: (§1) The time course of treatment effects was determined at two intervals; during the early response 0, 5, 10 and 30 min after injury, and over the longer term after 6 days recovery. Short term experiments were repeated at least twice. The longer term animals were maintained either on plain drinking water or water containing fresh L-NAME at 12.5 mg/100 ml (30 mg/kg/day), based on an intake of 6–7 ml/day/mouse (McIntosh et al., 1994. 17:444–453). In the longer term repair studies, there were 4 normal mice in each of saline- and L-NAME-treated groups. An additional 2 normal and 2 mdx mice were injected once before injury with L-NAME and given plain water for 6 days.
# In the longer term study of NOS inhibition during repair, saline and L-NAME-treated normal mice recovered for 6 days. Two mice per group were injected 2 hr before sacrifice with BrdU (i.p., 1.6 mg in 0.4 ml saline) and sections were immunostained using anti-BrdU antibodies as above.
# Sections and cultures were viewed on an Olympus microscope equipped with epifluorescence and phase contrast optics. Observations were based on systematic viewing of 2–4 longitudinal sections per muscle (separated by […]). In the case of muscle regenerating from crush injury, observations (without knowledge of treatment group) were made in pre-set fields of muscle from the central crush region, the adjacent regenerating region and the surviving region as reported (McIntosh et al. (1994) Muscle Nerve 17: 444–453). Representative photographs of muscle fibers and satellite cells were taken on over 700 frames of ASA 400 Fuji Sensia slide film. Where stated, the number of satellite cells observed in each category, group or condition was estimated from photographed slides rather than from direct counts made during observations under oil immersion. Selected slides were scanned (Olympus Film Scanner ES-10, Olympus Optical Co., Tokyo), formatted into plates with little or no enlargement and printed (Freehand 8.0, Macromedia Inc.).
# regenerating mdx muscles = experiment: Muscle regeneration 6 days after crush injury, mdx mice; assay type: in vivo; settings: single L-NAME injection
# Protocol: as §1
# Sections and cultures were viewed on an Olympus microscope equipped with epifluorescence and phase contrast optics. Observations were based on systematic viewing of 2–4 longitudinal sections per muscle (separated by […]). In the case of muscle regenerating from crush injury, observations (without knowledge of treatment group) were made in pre-set fields of muscle from the central crush region, the adjacent regenerating region and the surviving region as reported (McIntosh et al. (1994) Muscle Nerve 17: 444–453). Representative photographs of muscle fibers and satellite cells were taken on over 700 frames of ASA 400 Fuji Sensia slide film. […]
# [1] = Muscle weight to body weight (edema) and haemorrhage after crush injury, normal mice; assay type: in vivo, normal mice (C57BL/6); settings: ip treatment 30 min before crush; 0–30 min after injury
# dystrophic muscle = experiment: Longer term systemic L-NAME treatment, severity of dystrophy in mdx mice; assay type: in vivo; settings: systemic L-NAME (3 weeks / drinking water); young mdx animals; diaphragm, SOL, EDL, TA
# Excerpt: The present results address for the first time the initial steps of satellite cell activation. A single exposure to NOS inhibition had subtle effects on myotube formation that echo NO-stimulated myoblast fusion in vitro. Longer NOS inhibition reduced the effectiveness of repair and restricted its distribution, in agreement with the idea that shear-induced responses become attenuated longitudinally away from the injury. The significant negative effect of pharmacologic NOS inhibition on myogenic repair reported here was further extended by the recent preliminary studies on repair in NOS-I knockout mice (n≈2), and during longer term NOS inhibition in mdx mice (n≈22).
# A study of 4 groups (n≈10/group) of mdx dystrophic mice treated with placebo, deflazacort, deflazacort plus L-NAME (a NOS inhibitor), or deflazacort plus L-arginine (a […]). Deflazacort was given by daily injection (ip) and L-NAME and L-arginine were given systemically in the drinking water.
# satellite cells [2] = experiment: Satellite cell morphometry from electron micrographs 0 and 10 min after crush injury; assay type: in vivo, mice; settings: L-NAME pretreatment
# Excerpt: Measurements of cell area (size increases in activated cells), nucleus-to-cytoplasm ratio (a measure that decreases with activation), and cytoplasmic density (a measure that decreases in activation with the increase in cell size, despite the hypertrophy of cytoplasmic organelles) were made from electron micrographs without knowledge of their source. Two investigators had to agree on the satellite cell identification before cells were included in the study, with the stipulation that cell profiles had complete nuclei and cell membrane visible in a photograph or montage (all photographs taken at identical magnification of 10,000×) Satellite cells originated from the central crush-injured region of muscles collected from each mouse (n=4). Cytoplasmic density was determined as [the integrated cell density minus the integrated nuclear density] divided by [cell area minus nuclear area]. A computer was used to scan micrograph negatives, and digital images were analyzed using the program NIH Image for morphometry.
# satellite cells [3] = experiment: Cell yield time course 0–30 min after crush injury of right tibialis anterior, mdx mice; assay type: in vivo; settings: L-NAME
# [4] = Muscle weight to body weight (edema) and haemorrhage after crush injury, mdx mice; assay type: in vivo; settings: L-NAME ip 30 min before crush
# satellite cells [5] = experiment: Cell yield time course 0–30 min after crush injury of right tibialis anterior, normal mice; assay type: in vivo, normal mice (C57BL/6)
structure (smiles),measurement,setting,value
"COC(=O)[C@@H](N)CCCNC(=N)N[N+](=O)[O-] [L-NAME, Nω-nitro-L-arginine methyl ester]",muscle regeneration,"regenerating muscle; L-NAME in drinking water (30 mg/kg/day) over 6 days of repair, n=4",muscle regeneration was reduced; also recorded: reduces normal muscle regeneration
same,density of myotubes per field vs saline-treated mice,regenerating muscle; L-NAME over 6 days of repair,much lower density per field
same,branched myotubes,regenerating muscle; longer term L-NAME exposure of regenerating mdx and normal muscle in vivo,high prevalence of branched myotubes
same,myotubes appearing as incompletely fused blocks of cells,"regenerating muscle; single injection of L-NAME before injury, 6 days, estimated",5–10%
same,muscle regeneration after 6 days,"regenerating muscle; single injection of L-NAME before injury, n=2",subtle effects on muscle regeneration
same,"new myotubes in continuity with satellite cells, anchored inside external lamina sheaths",regenerating mdx muscles; 6 days,roughly 5%
same,regenerating muscle over 6 days,regenerating mdx muscles; n=2,subtle changes in regenerating mdx muscles
same,muscle weight profile (RTA relative to LTA; muscle weight as proportion of body weight),[1],RTA weight increased only at 10 min. relative to LTA
same,severity of dystrophy,dystrophic muscle,appeared to increase the severity of dystrophy; also recorded: makes dystrophy more severe
same,cell area,"satellite cells [2]; 0 minutes post-crush, n = 8",9.0 ± 1.6 arbitrary units
same,cytoplasmic density,"satellite cells [2]; 0 minutes post-crush, n = 8",91.7 ± 5.8 arbitrary units
same,nucleus:cytoplasm ratio,"satellite cells [2]; 0 minutes post-crush, n = 8",70.2 ± 1.7%
same,satellite cell activation state by morphologic criteria,satellite cells [2]; 0–10 minutes post-crush,maintained quiescence over 10 minutes
same,cell area,"satellite cells [2]; 10 minutes post-crush, n = 3",6.3 ± 1.1 arbitrary units
same,cytoplasmic density,"satellite cells [2]; 10 minutes post-crush, n = 3",66.2 ± 2.1 arbitrary units
same,nucleus:cytoplasm ratio,"satellite cells [2]; 10 minutes post-crush, n = 3",52.0 ± 8.7 %
same,increase of LTA cell yield at 10 min,satellite cells [3],50%
same,RSOL cell yield,satellite cells [3]; 0–30 min,did not change over time
same,RTA cell yield time course,satellite cells [3]; 0–30 min,rose slowly over the 30 min. time course; also recorded: decreased and further delayed the peak of myogenic cells; also recorded: prevented the increased RTA yield at 10 min
same,increase in RTA weight after injury,[4],abolished the increase in RTA weight for 30 min
same,time of delayed peak RTA yield after injury,"satellite cells [5]; L-NAME 3 mg/kg, one experiment",< 10 min
same,LTA cell yield at 10 min relative to 0 min,satellite cells [5]; L-NAME 7.5 mg/kg,2 fold
same,RTA cell yield at 10 min relative to 0 min,satellite cells [5]; L-NAME 7.5 mg/kg,3.5 fold
same,time after injury until which the increased RTA cell yield is delayed,satellite cells [5]; L-NAME 7.5 mg/kg ip 30 min before crush,10 min
same,initial injury-induced rise in RTA cell yield,"satellite cells [5]; L-NAME 7.5 mg/kg ip 30 min before crush, 0 min",preventing the initial injury-induced rise in RTA yield; also recorded: absent after L-NAME
same,LTA cell yield lower than in saline-treated mice,"satellite cells [5]; L-NAME 7.5 mg/kg, 0 min",15%
same,RSOL cell yield lower than in saline-treated mice,"satellite cells [5]; L-NAME 7.5 mg/kg, 0 min",50%
same,fewer cells isolated from RTA than LTA,"satellite cells [5]; L-NAME 7.5 mg/kg, 0 min",30%
same,time of delayed peak RTA yield after injury,"satellite cells [5]; L-NAME 10 or 12.5 mg/kg, one experiment at each dose",> 10 min
same,peak cell yield in RTA,satellite cells [5]; L-NAME ip 30 min before crush,delayed (not reduced)
same,peak in cell yield from LTA (at 10 min.),satellite cells [5]; L-NAME ip 30 min before crush,reduced but not delayed; also recorded: reduced by L-NAME treatment
